Data taken from patent US20240228458A1, “PYRIMIDINE DERIVATIVE HAVING PROTEIN KINASE INHIBITORY ACTIVITY, AND THERAPEUTIC PHARMACEUTICAL COMPOSITION COMPRISING SAME” (THERAPEX CO., LTD., priority 2021, published 2024).

Experiments:
Assay type in all cases: cell-based
[1] = tested on: Ba/F3 cells expressing L858R/T790M/C797S (EGFR-LTC); assay: Growth inhibition (GI50) of Ba/F3 cells expressing L858R/T790M/C797S (EGFR-LTC), Celltiter glo; details: Mus musculus, BaF3, 72 h
How it was run: (§1)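 Viable-cell luminescence (CellTiter-Glo) after 72 h compound exposure at 37 °C, 5% CO2 gave GI50 (μM, 50% growth inhibition). Compounds were 4-fold serial dilutions, 10 points, from a 2 mM stock, 0.5% DMSO, added 4 h after plating EGFR-variant Ba/F3 cells at 100,000 cells/ml.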

[2] = tested on: Ba/F3 cells expressing L858R/T790M (EGFR-LT); assay: Growth inhibition (GI50) of Ba/F3 cells expressing L858R/T790M (EGFR-LT), Celltiter glo; details: Mus musculus, BaF3, 72 h
Procedure: (§2) In this experimental example, a determination was made as to whether the compounds prepared in Examples 1-283 have the ability to inhibit the growth of Ba/F3 cells expressing EGFR-wt, del19/T790M/C797S (EGFR-DTC), L858R/T790M/C797S (EGFR-LTC), del19/T790M (EGFR-DT), and L858R/T790M (EGFR-LT) variants.
(§3) The parental Ba/F3 cell line is a population of cells that are not introduced with EGFR variants. Specifically, 100 μl of a cell line expressing each variant was plated in a 96-well plate at a density of 100,000 cells/ml. 10-point, 4-fold serial dilutions of each compound were prepared, starting at 2 mM. After 4 h, 0.5 μl of the compound (0.5% DMSO) was added, followed by incubation at 37° C. and 5% CO2 for 72 h. After incubation, the number of viable cells was measured using a Celltiter glo assay kit (Promega) and the GI50 of the compound was determined. The term “GI50” refers to the molar concentration (μM) of the compound required for 50% growth inhibition of cells.

[3] = tested on: Ba/F3 cells expressing del19/T790M/C797S (EGFR-DTC); assay: Growth inhibition (GI50) of Ba/F3 cells expressing del19/T790M/C797S (EGFR-DTC), Celltiter glo; details: Mus musculus, BaF3, 72 h
How it was run: as §1

[4] = tested on: Ba/F3 cells expressing EGFR-wt; assay: Growth inhibition (GI50) of Ba/F3 cells expressing EGFR-wt, Celltiter glo; details: Mus musculus, BaF3, 72 h
How it was run: as §1

[5] = tested on: Ba/F3 cells expressing del19/T790M (EGFR-DT); assay: Growth inhibition (GI50) of Ba/F3 cells expressing del19/T790M (EGFR-DT), Celltiter glo; details: Mus musculus, BaF3, 72 h
Procedure: as §2, §3

parental Ba/F3 cell line = assay: Growth inhibition (GI50) of the parental Ba/F3 cell line (not introduced with EGFR variants), Celltiter glo; details: Mus musculus, BaF3, 72 h, parental Ba/F3 cells
How it was run: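 Viable cell count by CellTiter-Glo after 72 h at 37 °C gave GI50 values (μM, 50% growth inhibition). Cells lacking EGFR variants were seeded at 100,000 cells/ml and dosed 4 h later with 4-fold serial dilutions from a 2 mM stock, 0.5% DMSO.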

Compound	GI50 [1]	GI50 [2]	GI50 [3]	GI50 [4]	GI50 [5]	GI50 (parental Ba/F3 cell line)
COc1cc(N2CCC(N3CCCC(N(C)C)C3)CC2)c(C)cc1Nc1ncc(Br)c(Nc2ccc(F)cc2NS(C)(=O)=O)n1 (stereo not drawn) [Example 39, N-(2-((5-bromo-2-((4-(3-(dimethylamino)-[1,4′-bipiperidin]-1′-yl)-2-methoxy-5-methylphenyl)amino)pyrimidin-4-yl)amino)-5-fluorophenyl)methanesulfonamide]	1 to 25 nM	25 to 100 nM	1 to 25 nM	100 to 500 nM	100 to 500 nM	500 to 2000 nM
CNS(=O)(=O)c1ccccc1Nc1nc(Nc2ccc(N3CCN(CCO)CC3)nc2OC)ncc1Cl [Example 56, 2-((5-chloro-2-((6-(4-(2-hydroxyethyl)piperazin-1-yl)-2-methoxypyridin-3-yl)amino)pyrimidin-4-yl)amino)-N-methylbenzenesulfonamide]	500 to 2000 nM	500 to 2000 nM	500 to 2000 nM	500 to 2000 nM	100 to 500 nM	2000 to 10000 nM
CNS(=O)(=O)c1ccccc1Nc1nc(Nc2ccc(N3CCC(N(C)C)C3)nc2OC)ncc1Cl (stereo not drawn) [Example 57, 2-((5-chloro-2-((6-(3-(dimethylamino)pyrrolidin-1-yl)-2-methoxypyridin-3-yl)amino)pyrimidin-4-yl)amino)-N-methylbenzenesulfonamide]	500 to 2000 nM	500 to 2000 nM	500 to 2000 nM	500 to 2000 nM	100 to 500 nM	500 to 2000 nM
CNS(=O)(=O)c1ccccc1Nc1nc(Nc2cc(C)c(N3CCC(N4CCN(C)CC4)CC3)nc2OC)ncc1Cl [Example 58, 2-((5-chloro-2-((2-methoxy-5-methyl-6-(4-(4-methylpiperazin-1-yl)piperidin-1-yl)pyridin-3-yl)amino)pyrimidin-4-yl)amino)-N-methylbenzenesulfonamide]	100 to 500 nM	500 to 2000 nM	100 to 500 nM	100 to 500 nM	100 to 500 nM	100 to 500 nM
CC(=O)Nc1ccc(Cl)cc1Nc1nc(Nc2ccc(N3CCC(N4CCN(C)CC4)CC3)c(F)c2)ncc1Cl [Example 67, N-(4-chloro-2-((5-chloro-2-((3-fluoro-4-(4-(4-methylpiperazin-1-yl)piperidin-1-yl)phenyl)amino)pyrimidin-4-yl)amino)phenyl)acetamide]	25 to 100 nM	100 to 500 nM	25 to 100 nM	100 to 500 nM	100 to 500 nM	2000 to 10000 nM
CC(=O)Nc1ccccc1Nc1nc(Nc2cnc(N3CCC(N4CCN(C)CC4)CC3)c(F)c2)ncc1Cl [Example 70, N-(2-((5-chloro-2-((5-fluoro-6-(4-(4-methylpiperazin-1-yl)piperidin-1-yl)pyridin-3-yl)-amino)pyrimidin-4-yl)amino)phenyl)acetamide]	25 to 100 nM	25 to 100 nM	25 to 100 nM	100 to 500 nM	25 to 100 nM	500 to 2000 nM
COc1cc(N2CCC(N3CCN(C)CC3)CC2)c(C)cc1Nc1ncc(Cl)c(Nc2cc(Cl)ccc2NS(C)(=O)=O)n1 [Example 80, N-(4-chloro-2-((5-chloro-2-((2-methoxy-5-methyl-4-(4-(4-methylpiperazin-1-yl)piperidin-1-yl)phenyl)amino)pyrimidin-4-yl)amino)phenyl)methanesulfonamide]	1 to 25 nM	1 to 25 nM	1 to 25 nM	100 to 500 nM	1 to 25 nM	2000 to 10000 nM
COc1nc(N2CCC(N3CCN(C)CC3)CC2)c(C)cc1Nc1ncc(Br)c(Nc2cc(Cl)ccc2NS(C)(=O)=O)n1 [Example 86, N-(2-((5-bromo-2-((2-methoxy-5-methyl-6-(4-(4-methylpiperazin-1-yl)piperidin-1-yl)pyridin-3-yl)amino)pyrimidin-4-yl)amino)-4-chlorophenyl)methanesulfonamide]	1 to 25 nM	25 to 100 nM	25 to 100 nM	500 to 2000 nM	1 to 25 nM	2000 to 10000 nM
CN1CCN(C2CCN(c3ccc(Nc4ncc(Br)c(Nc5cc(Cl)ccc5NS(C)(=O)=O)n4)cc3F)CC2)CC1 [Example 87, N-(2-((5-bromo-2-((3-fluoro-4-(4-(4-methylpiperazin-1-yl)piperidin-1-yl)phenyl)amino)pyrimidin-4-yl)amino)-4-chlorophenyl)methanesulfonamide]	25 to 100 nM	25 to 100 nM	25 to 100 nM	100 to 500 nM	25 to 100 nM	100 to 500 nM
COc1cc(N2CCC(N3CCCC(N(C)C)C3)CC2)c(C)cc1Nc1ncc(Br)c(Nc2cc(Cl)ccc2NS(C)(=O)=O)n1 (stereo not drawn) [Example 90, N-(2-((5-Bromo-2-((4-(3-(dimethylamino)-[1,4′-bipiperidin]-1′-yl)-2-methoxy-5-methylphenyl)amino)pyrimidin-4-yl)amino)-4-chlorophenyl)methanesulfonamide]	1 to 25 nM	1 to 25 nM	1 to 25 nM	100 to 500 nM	1 to 25 nM	500 to 2000 nM

Now from value to compound, other results behind:

GI50 [1]	GI50 [2]	GI50 [3]	GI50 [4]	GI50 [5]	Compound	GI50 (parental Ba/F3 cell line)
25 to 100 nM	100 to 500 nM	25 to 100 nM	100 to 500 nM	25 to 100 nM	COc1cc(N2CCC(N3CCCN(C)CC3)CC2)c(C)cc1Nc1ncc(Br)c(Nc2ccc(F)cc2NS(C)(=O)=O)n1 [Example 38, N-(2-((5-bromo-2-((2-methoxy-5-methyl-4-(4-(4-methyl-1,4-diazepan-1-yl)piperidin-1-yl)phenyl)amino)pyrimidin-4-yl)amino)-5-fluorophenyl)methanesulfonamide]	500 to 2000 nM
25 to 100 nM	100 to 500 nM	25 to 100 nM	500 to 2000 nM	25 to 100 nM	Cc1cc(Nc2ncc(Br)c(Nc3ccc(F)cc3NS(C)(=O)=O)n2)c(Cl)cc1N1CCC(N2CCCN(C)CC2)CC1 [Example 44, N-(2-((5-bromo-2-((2-chloro-5-methyl-4-(4-(4-methyl-1,4-diazepan-1-yl)piperidin-1-yl)phenyl)amino)pyrimidin-4-yl)amino)-5-fluorophenyl)methanesulfonamide]	500 to 2000 nM
25 to 100 nM	100 to 500 nM	25 to 100 nM	500 to 2000 nM	25 to 100 nM	Cc1cc(Nc2ncc(Br)c(Nc3ccc(F)cc3NS(C)(=O)=O)n2)c(Cl)cc1N1CCC(N2CCCC(N(C)C)C2)CC1 (stereo not drawn) [Example 45]	500 to 2000 nM
1 to 25 nM	1 to 25 nM	1 to 25 nM	100 to 500 nM	1 to 25 nM	COc1cc(N2CCC(N3CCN(C)CC3)CC2)c(C)cc1Nc1ncc(Br)c(Nc2cc(Cl)ccc2NS(C)(=O)=O)n1 [Example 85]	500 to 2000 nM
1 to 25 nM	1 to 25 nM	1 to 25 nM	100 to 500 nM	1 to 25 nM	COc1cc(N2CCC(N3CCN(C)CC3)CC2)c(Cl)cc1Nc1ncc(Br)c(Nc2cc(Cl)ccc2NS(C)(=O)=O)n1 [Example 88, N-(2-((5-bromo-2-((5-chloro-2-methoxy-4-(4-(4-methylpiperazin-1-yl)piperidin-1-yl)phenyl)amino)pyrimidin-4-yl)amino)-4-chlorophenyl)methanesulfonamide]	500 to 2000 nM
1 to 25 nM	1 to 25 nM	1 to 25 nM	100 to 500 nM	25 to 100 nM	COc1cc(N2CCC(N3CCCN(C)CC3)CC2)c(C)cc1Nc1ncc(Br)c(Nc2cc(Cl)ccc2NS(C)(=O)=O)n1 [Example 89]	500 to 2000 nM
